US5556970A, “Lanolin fatty acids, a method for their fractionation, cosmetics and drugs for external use” (priority 1992, dated 1996)

How the values were obtained:
[1] = tested on: atopic dermatitis, ichthyosis and age-associated wrinkles; details: in vivo; cited from earlier work
[2] = interaction with water (water solubility); format: physicochemical; details: 2 g in 100 ml distilled water
Experimental: For this test, 2 g of each sample was dissolved by heating in a beaker, 100 ml of distilled water at 70° C. was added and the mixture was stirred at the constant temperature of 70° C. for about 1 hour, after which it was allowed to cool and examined.

Structure (SMILES) | effect in skin conditions [1] | Stability (in words) [2] | Condition of aqueous solution ([2]; 70° C., 1 hour, cooled)
CC(O)C(=O)O (centres unmarked) [lactic acid] | effective in atopic dermatitis, ichthyosis and reduction of age-associated wrinkles |  | 
O=C(O)CC(O)(CC(=O)O)C(=O)O [citric acid] | effective in atopic dermatitis, ichthyosis and reduction of age-associated wrinkles |  | 
CCCCCCCCCCCCCCCCCC(=O)OCC(O)CO (centres unmarked) [GLYMSA, Glycerol monostearate] |  | Phase separation on standing | Emulsion
O=C(O)C(O)C(O)C(=O)O (centres unmarked) [tartaric acid] | effective in atopic dermatitis, ichthyosis and reduction of age-associated wrinkles |  | 
